Laboratory results as given in patent publication US6974870B2, “Substituted 3-amino-thieno [2,3-b]pyridine-2-carboxylic acid amide compounds and processes for preparing and their uses” (Boehringer Ingelheim Phamaceuticals, Inc., priority 2002, dated 2005).

These compounds were tested against T1, human IKKβ (Homo sapiens, UniProt O14920) (assay: IKKβ kinase inhibition assay (phosphorylation of IκBα substrate, 33P-ATP)). Details: flag-tagged human IKKβ 0.9 μg/ml, GST-IκBα (1-54) 53 μg/ml, 250 nM ATP, 1 hour at 25° C.
T1 construct: FLAG (N)
T1 sequence (O14920 1-756): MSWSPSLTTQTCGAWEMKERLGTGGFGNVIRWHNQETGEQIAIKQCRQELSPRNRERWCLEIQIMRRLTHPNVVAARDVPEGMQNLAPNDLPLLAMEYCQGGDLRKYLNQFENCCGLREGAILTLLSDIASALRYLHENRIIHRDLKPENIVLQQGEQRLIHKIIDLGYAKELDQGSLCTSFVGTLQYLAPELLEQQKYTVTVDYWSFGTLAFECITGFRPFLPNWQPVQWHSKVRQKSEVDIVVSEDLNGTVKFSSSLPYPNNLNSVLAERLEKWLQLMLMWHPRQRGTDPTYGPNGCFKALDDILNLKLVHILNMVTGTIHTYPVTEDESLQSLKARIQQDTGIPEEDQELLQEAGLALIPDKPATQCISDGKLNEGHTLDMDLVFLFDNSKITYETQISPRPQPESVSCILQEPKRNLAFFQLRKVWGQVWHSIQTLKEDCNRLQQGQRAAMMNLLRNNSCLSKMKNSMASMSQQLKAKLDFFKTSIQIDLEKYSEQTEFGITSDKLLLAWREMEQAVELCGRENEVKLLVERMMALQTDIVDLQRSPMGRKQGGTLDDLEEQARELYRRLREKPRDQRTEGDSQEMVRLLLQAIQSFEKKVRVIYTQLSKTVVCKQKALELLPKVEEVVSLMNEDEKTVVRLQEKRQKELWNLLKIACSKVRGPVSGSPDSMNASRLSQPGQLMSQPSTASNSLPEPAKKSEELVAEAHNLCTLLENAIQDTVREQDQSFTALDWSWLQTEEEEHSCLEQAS
Assay type: biochemical
Protocol: (§1) The inhibition of IKKα and IKKβ by the compounds of the present invention was determined with the following assay that measures the phosphorylation of the IκBα substrate by the respective kinases. The enzymes used in the assay were N-terminally flag-tagged versions of the human IKKβ or IKKα and the substrate was a GST fusion protein with IκBα (amino acids 1-54).
(§2) The reaction mixtures (60 μl) contained 20 mM HEPES pH 7.5, 10 mM MgCl2, 2 mM MnCl2, 100 mM NaCl, 100 μM Na3VO4, 20 mM β-glycerophosphate, 1 mM DTT, 2% DMSO, 250 nM ATP, 0.4 nM [^33P]ATP (specific activity, 3000 Ci/mmol), IκBα substrate, IKK enzyme and test compound. The reaction mixtures contained either 3.6 μg/ml IKKα and 245 μg/ml IκBα or 0.9 μg/ml IKKβ and 53 μg/ml IκBα.
(§3) Reactions were initiated by adding a solution of IκBα substrate and ATP to polypropylene plates containing IKK enzyme that was pre-incubated for 5 minutes with test compound. Then the reaction mixtures were incubated for 1 hour at 25° C., placed on ice and quenched by the addition of 150 μl 10% trichloroacetic acid and 5% disodium pyrophosphate. After mixing, the entire contents of the quenched reaction mixtures were transferred to a pre-wetted Packard UniFilter filtration plate, aspirated and washed 6 times with 250 μl of ddH2O using the Packard Filtermate Harvester. Filtration plates were then air dried, supplemented with 40 μl of Microscint 20 scintillation fluid and the ^33P-labeled reaction products were quantified using the Packard TopCount scintillation counter.
(§4) Compounds were tested in three-fold serial dilutions and inhibitor concentrations to achieve 50% inhibition of enzyme activity (i.e., IC50) were derived from dose-reponse curves using SAS software (SAS Institute, Cary N.C.). A non-linear regression analysis based on the Hill equation was applied to the percent inhibition versus concentration data. In all cases, compound concentrations were verified by HPLC.

IC50 [µM] | Compound
< 1 | CCCc1cc(N2CCC(NCC(O)C(=O)Nc3ccccc3)CC2)nc2sc(C(N)=O)c(N)c12 (stereo not shown) [3-Amino-6-[4-(2-hydroxy-2-phenylcarbamoyl-ethylamino)-piperidin-1-yl]-4-propyl-thieno[2,3-b] pyridine-2-carboxylic acid amide]
< 1 | CCCc1cc(N2CCC(NCC(O)Cc3ccc(C(N)=O)cc3)CC2)nc2sc(C(N)=O)c(N)c12 (stereo not shown) [3-Amino-6-{4-[3-(4-carbamoyl-phenyl)-2-hydroxy-propylamino]-piperidin-1-yl}-4-propyl-thieno[2,3-b] pyridine-2-carboxylic acid amide]
< 1 | CCCc1cc(N2CCC(NCC(O)COc3ccc(F)cc3)CC2)nc2sc(C(N)=O)c(N)c12 (stereo not shown) [3-Amino-6-{4-[3-(4-fluoro-phenoxy)-2-hydroxy-propylamino]-piperidin-1-yl}-4-propyl-thieno[2,3-b] pyridine-2-carboxylic acid amide]
< 1 | CCCc1cc(N2CCC(NCC(O)COc3ccc(C#N)cc3)CC2)nc2sc(C(N)=O)c(N)c12 (stereo not shown) [3-Amino-6-{4-[3-(4-cyano-phenoxy)-2-hydroxy-propylamino]-piperidin-1-yl}-4-propyl-thieno[2,3-b] pyridine-2-carboxylic acid amide]
< 1 | CC(C)(C)c1cc(N2CCC(N)CC2)nc2sc(C(N)=O)c(N)c12 [3-Amino-6-(4-amino-piperidin-1-yl)-4-tert-butyl-thieno[2,3-b] pyridine-2-carboxylic acid amide]
< 1 | CCCc1cc(N2CCC(NCC(=O)Nc3cccc(C(N)=O)c3)CC2)nc2sc(C(N)=O)c(N)c12 [3-Amino-6-(4-{[(3-carbamoyl-phenylcarbamoyl)-methyl]-amino}-piperidin-1-yl)-4-propyl-thieno[2,3-b] pyridine-2-carboxylic acid amide]
< 1 | CCCc1cc(N2CCC(NCC(=O)NCCO)CC2)nc2sc(C(N)=O)c(N)c12 [3-Amino-6-(4-{[(2-hydroxy-ethylcarbamoyl)-methyl]-amino}-piperidin-1-yl)-4-propyl-thieno[2,3-b] pyridine-2-carboxylic acid amide]
< 1 | CCCc1cc(N2CCC(NCC(=O)NCC(N)=O)CC2)nc2sc(C(N)=O)c(N)c12 [3-Amino-6-(4-{[(carbamoylmethyl-carbamoyl)-methyl]-amino}-piperidin-1-yl)-4-propyl-thieno[2,3-b] pyridine-2-carboxylic acid amide]
< 1 | CCCc1cc(N2CCC(NCC(O)Cc3cccc(C(N)=O)c3)CC2)nc2sc(C(N)=O)c(N)c12 (stereo not shown) [3-Amino-6-{4-[3-(3-carbamoyl-phenyl)-2-hydroxy-propylamino]-piperidin-1-yl}-4-propyl-thieno[2,3-b] pyridine-2-carboxylic acid amide]
< 1 | CCCc1cc(N2CCC(NCC(=O)Nc3ccccc3C(N)=O)CC2)nc2sc(C(N)=O)c(N)c12 [3-Amino-6-(4-{[(2-carbamoyl-phenylcarbamoyl)-methyl]-amino}-piperidin-1-yl)-4-propyl-thieno[2,3-b] pyridine-2-carboxylic acid amide]

The compounds below were run against T2, human IKKα (Homo sapiens, UniProt O15111) (assay: IKKα kinase inhibition assay (phosphorylation of IκBα substrate, 33P-ATP)). Details: flag-tagged human IKKα 3.6 μg/ml, GST-IκBα (1-54) 245 μg/ml, 250 nM ATP, 1 hour at 25° C.
T2 construct: FLAG (N)
T2 sequence (O15111 1-745): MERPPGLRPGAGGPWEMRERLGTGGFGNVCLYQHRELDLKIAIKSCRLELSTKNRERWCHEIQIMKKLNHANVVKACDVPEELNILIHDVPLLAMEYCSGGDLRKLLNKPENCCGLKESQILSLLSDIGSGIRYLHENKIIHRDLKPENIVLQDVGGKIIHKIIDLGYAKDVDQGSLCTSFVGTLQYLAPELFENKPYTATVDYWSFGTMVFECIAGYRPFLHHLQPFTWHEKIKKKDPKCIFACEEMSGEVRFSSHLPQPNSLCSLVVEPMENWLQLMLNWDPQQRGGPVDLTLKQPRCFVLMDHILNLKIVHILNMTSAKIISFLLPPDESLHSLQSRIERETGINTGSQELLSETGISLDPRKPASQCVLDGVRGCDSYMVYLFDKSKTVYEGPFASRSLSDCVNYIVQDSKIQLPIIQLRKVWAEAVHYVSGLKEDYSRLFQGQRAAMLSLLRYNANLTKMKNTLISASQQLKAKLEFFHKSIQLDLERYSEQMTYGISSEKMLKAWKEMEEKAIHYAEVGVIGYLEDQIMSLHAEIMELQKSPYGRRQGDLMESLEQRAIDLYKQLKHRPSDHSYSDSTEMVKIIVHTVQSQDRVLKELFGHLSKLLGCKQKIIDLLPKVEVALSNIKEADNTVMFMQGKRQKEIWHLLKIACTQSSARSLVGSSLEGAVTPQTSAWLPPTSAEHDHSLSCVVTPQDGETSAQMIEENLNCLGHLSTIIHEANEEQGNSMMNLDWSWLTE
Assay type: biochemical
Protocol: as §1, §2, §3, §4

IC50 [µM] | Compound
≤ 10 | CCCc1cc(N2CCC(NC)CC2)nc2sc(C(N)=O)c(N)c12 [3-Amino-6-(4-methylamino-piperidin-1-yl)-4-propyl-thieno[2,3-b] pyridine-2-carboxylic acid amide]
≤ 10 | CCCc1cc(N2CCC(N)(C#N)CC2)nc2sc(C(N)=O)c(N)c12 [3-Amino-6-(4-amino-4-cyano-piperidin-1-yl)-4-propyl-thieno[2,3-b] pyridine-2-carboxylic acid amide]
≤ 10 | Cc1cc(-c2ccc(S(C)(=O)=O)cc2)c2c(N)c(C(N)=O)sc2n1 [3-Amino-4-(4-methanesulfonyl-phenyl)-6-methyl-thieno[2,3-b]pyridine-2-carboxylic acid amide]
≤ 10 | CCCc1cc(N2CCC(NCC(O)c3ccc(C(=O)NCc4cccnc4)cc3)CC2)nc2sc(C(N)=O)c(N)c12 (stereo not shown) [3-Amino-6-[4-(2-hydroxy-2-{4-[(pyridin-3-ylmethyl)-carbamoyl]-phenyl}-ethylamino)-piperidin-1-yl]-4-propyl-thieno[2,3-b] pyridine-2-carboxylic acid amide]
≤ 10 | Cc1cc(-c2ccc([N+](=O)[O-])cc2)c2c(N)c(C(N)=O)sc2n1 [3-Amino-6-methyl-4-(4-nitro-phenyl)-thieno[2,3-b]pyridine-2-carboxylic acid amide]
≤ 10 | Cc1cc(/C=C/c2ccc(Cl)cc2)c2c(N)c(C(N)=O)sc2n1 [3-Amino-4-[(E)-2-(4-chloro-phenyl)-vinyl]-6-methyl-thieno[2,3-b]pyridine-2-carboxylic acid amide]
≤ 10 | NC(=O)c1sc2nc(N3CCC(NCC(O)c4ccc(F)c(F)c4)CC3)cc(C(F)(F)F)c2c1N (stereo not shown) [3-Amino-6-{4-[2-(3,4-difluoro-phenyl)-2-hydroxy-ethylamino]-piperidin-1-yl}-4-trifluoromethyl-thieno[2,3-b]pyridine-2-carboxylic acid amide]
≤ 10 | CCCc1cc(N2CCC(N)CC2)nc2sc(C(N)=O)c(N)c12 [3-Amino-6-(4-amino-piperidin-1-yl)-4-propyl-thieno[2,3-b] pyridine-2-carboxylic acid amide]
≤ 10 | NC(=O)c1sc2nc(N3CCC(N)CC3)cc(/C=C/c3ccccc3)c2c1N [3-Amino-6-(4-amino-piperidin-1-yl)-4-((E)-styryl)-thieno[2,3-b]pyridine-2-carboxylic acid amide]
≤ 10 | CCCc1cc(N2CCC(NCC(O)c3ccc(C(=O)NCc4cccc(C(N)=O)c4)cc3)CC2)nc2sc(C(N)=O)c(N)c12 (stereo not shown) [3-Amino-6-(4-{2-[4-(3-carbamoyl-benzylcarbamoyl)-phenyl]-2-hydroxy-ethylamino}-piperidin-1-yl)-4-propyl-thieno[2,3-b] pyridine-2-carboxylic acid amide]
≤ 10 | CSc1cc(N2CCC(N)CC2)nc2sc(C(N)=O)c(N)c12 [3-Amino-6-(4-amino-piperidin-1-yl)-4-methylsulfanyl-thieno[2,3-b]pyridine-2-carboxylic acid amide]
≤ 10 | CCCc1cc(N2CCC(NCC(O)c3ccc(NS(C)(=O)=O)cc3)CC2)nc2sc(C(N)=O)c(N)c12 (stereo not shown) [3-Amino-6-{4-[2-hydroxy-2-(4-methanesulfonylamino-phenyl)-ethylamino]-piperidin-1-yl}-4-propyl-thieno[2,3-b] pyridine-2-carboxylic acid amide]
